Laboratory results: BindingDB's records for doi:10.1016/0960-894X(95)00377-6 (1995)

How the values were obtained:
[1] = target: alpha-L-fucosidase (Bos taurus); experiment: Compound was tested for inhibitory activity against alpha-L-fucosidase from bovine epididymis
[2] = target: alpha-L-fucosidase (Bos taurus); experiment: Compound was tested for inhibitory activity (competitive) against alpha-L-fucosidase from bovine kidney
[3] = target: alpha-L-fucosidase (Bos taurus); experiment: Compound was tested for inhibitory activity (mixed) against alpha-L-fucosidase from bovine kidney

| SMILES | Ki [1] | Ki [2] | Ki [3] |
| --- | --- | --- | --- |
| NCC(O)C(=O)C(=O)C(N)CO (stereo unspecified) [2,6-Diimino-hexane-1,3,4,5-tetraol] | 11 µM | 7 µM |  |
| C[C@@H]1O[C@@H](O)[C@@H](O)[C@H](O)[C@@H]1S [(2R,3S,4S,5S,6S)-5-Mercapto-6-methyl-tetrahydro-pyran-2,3,4-triol] | 84 µM | 42 µM |  |
| CC1OC(SC2CC(O)C(O)OC2CO)C(O)C(O)C1O [(2S,4S,5S)-2-((3S,5S)-5,6-Dihydroxy-2-hydroxymethyl-tetrahydro-pyran-3-ylsulfanyl)-6-methyl-tetrahydro-pyran-3,4,5-triol] |  |  | 4000 µM |
| CC(=O)NC1CC(SC2OC(C)C(O)C(O)C2O)C(CO)OC1O [N-[(3S,5S)-2-Hydroxy-6-hydroxymethyl-5-((2S,4S,5S)-3,4,5-trihydroxy-6-methyl-tetrahydro-pyran-2-ylsulfanyl)-tetrahydro-pyran-3-yl]-acetamide] |  |  | 2400 µM |
